Target: BTK (Homo sapiens (Human), UniProt Q06187)
Assay: biochemical
Method: Btk kinase activity was determined using a homogenous time resolved fluorescence (HTRF) methodology. Measurements were performed in a reaction volume of 15 μL using 384-well assay plates. Kinase enzyme, inhibitor, ATP and 1 μM peptide substrate were incubated in a reaction buffer compose of Hepes50 mM (pH7.0), NaN3 0.02%, BSA 0.01%, Orthocanadate 0.1 mM. […] For each compound, enzyme activity as measured at various concentrations of compound, Negative control reactions were performed in the absence of inhibitor in two replicates and eight no enzyme controls were used to determine baseline fluorescence levels.

BTK, sequence (Q06187 whole entry, looked up, species assumed): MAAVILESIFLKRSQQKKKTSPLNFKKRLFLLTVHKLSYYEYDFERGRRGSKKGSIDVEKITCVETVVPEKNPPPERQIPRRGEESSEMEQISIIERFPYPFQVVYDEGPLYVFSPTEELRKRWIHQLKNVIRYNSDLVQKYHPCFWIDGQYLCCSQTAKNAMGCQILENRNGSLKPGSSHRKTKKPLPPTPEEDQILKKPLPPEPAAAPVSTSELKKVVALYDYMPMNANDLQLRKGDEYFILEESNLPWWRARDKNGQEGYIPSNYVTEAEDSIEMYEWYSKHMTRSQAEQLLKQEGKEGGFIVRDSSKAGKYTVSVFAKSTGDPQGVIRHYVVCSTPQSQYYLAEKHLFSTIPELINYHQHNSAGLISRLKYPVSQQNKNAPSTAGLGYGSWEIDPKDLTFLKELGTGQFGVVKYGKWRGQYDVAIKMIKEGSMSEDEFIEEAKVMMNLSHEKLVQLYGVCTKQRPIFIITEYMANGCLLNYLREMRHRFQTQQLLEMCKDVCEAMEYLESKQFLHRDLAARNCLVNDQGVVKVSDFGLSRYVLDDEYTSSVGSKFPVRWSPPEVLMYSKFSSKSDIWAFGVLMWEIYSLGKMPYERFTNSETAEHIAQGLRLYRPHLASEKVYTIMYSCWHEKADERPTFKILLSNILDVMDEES

Row | SMILES | IC50 [nM]
1 | CC#CC(=O)N1CCC[C@H]1c1nc(-c2ccc(OCc3cccc(F)c3F)cc2)c2cnccn12 [Example 127, (S)-1-(2-(1-(4-((2,3-difluorobenzyl)oxy)phenyl)imidazo[1,5-a]pyrazin-3-yl)pyrrolidin-1-yl)but-2-yn-1-one] | 1000 to 10000
2 | C=CC(=O)N1CCC[C@H]1c1nc(-c2ccc(Oc3ccc(OC)cc3)cc2)c2cnccn12 [Example 9, (S)-1-(2-(1-(4-(4-methoxyphenoxy)phenyl)imidazo[1,5-a]pyrazin-3-yl)pyrrolidin-1-yl)prop-2-en-1-one] | 10 to 100
3 | CC#CC(=O)N1CCC[C@H]1c1nc(-c2ccc(Oc3cccc(OC)c3F)cc2)c2c(O)nccn12 [Example 35, (S)-1-(2-(1-(4-(2-fluoro-3-methoxyphenoxy)phenyl)-8-hydroxyimidazo[1,5-a]pyrazin-3-yl)pyrrolidin-1-yl)but-2-yn-1-one] | 1000 to 10000
4 | CC#CC(=O)N1CC[C@@H](c2nc(-c3ccc(Oc4cccc(OC)c4F)cc3)c3cncc(OC4CCC4)n23)C1 [Example 101, (R)-1-(3-(5-cyclobutoxy-1-(4-(2-fluoro-3-methoxyphenoxy)phenyl)imidazo[1,5-a]pyrazin-3-yl)pyrrolidin-1-yl)but-2-yn-1-one] | 10 to 100
5 | CC#CC(=O)N1CCC[C@@H](c2nc(-c3ccc(Oc4cccc(OC)c4F)cc3)c3cncc(C)n23)C1 [Example 71, (R)-1-(3-(1-(4-(2-fluoro-3-methoxyphenoxy)phenyl)-5-methylimidazo[1,5-a]pyrazin-3-yl)piperidin-1-yl)but-2-yn-1-one] | 100 to 1000
6 | CC#CC(=O)N1CCCC[C@H]1c1nc(-c2cccc(OCc3cccc(C(F)(F)F)c3)c2)c2c(C)nccn12 [Example 163, (S)-1-(2-(8-methyl-1-(3-((3-(trifluoromethyl)benzyl)oxy)phenyl)imidazo[1,5-a]pyrazin-3-yl)piperidin-1-yl)but-2-yn-1-one] | 1000 to 10000
7 | CC#CC(=O)N1CCCC[C@H]1c1nc(-c2ccc(Oc3cccc(F)c3F)cc2)c2c(C)nccn12 [Example 60, (S)-1-(2-(1-(4-(2,3-difluorophenoxy)phenyl)-8-methylimidazo[1,5-a]pyrazin-3-yl)piperidin-1-yl)but-2-yn-1-one] | 10 to 100
8 | CC#CC(=O)N1CCC[C@H]1c1nc(-c2ccc(Oc3cccc(OC(C)C)c3)cc2)c2cnccn12 [Example 39, (S)-1-(2-(1-(4-(3-isopropoxyphenoxy)phenyl)imidazo[1,5-a]pyrazin-3-yl)pyrrolidin-1-yl)but-2-yn-1-one] | 100 to 1000
9 | CC#CC(=O)N1CCCC[C@H]1c1nc(-c2ccc(COc3ccc(F)c(F)c3)cc2)c2c(C)nccn12 [Example 151, (S)-1-(2-(1-(4-((3,4-difluorophenoxy)methyl)phenyl)-8-methylimidazo[1,5-a]pyrazin-3-yl)piperidin-1-yl)but-2-yn-1-one] | 100 to 1000
10 | CC#CC(=O)N1CCC[C@H]1c1nc(-c2ccc(COc3cccc(F)c3F)cc2)c2cnccn12 [Example 130, (S)-1-(2-(1-(4-((2,3-difluorophenoxy)methyl)phenyl)imidazo[1,5-a]pyrazin-3-yl)pyrrolidin-1-yl)but-2-yn-1-one] | 1000 to 10000
11 | C=CC(=O)N1CCC[C@H]1c1nc(-c2ccc(COc3cccc(OC)c3F)cc2)c2cnccn12 [Example 161, (S)-1-(2-(1-(4-((2-fluoro-3-methoxyphenoxy)methyl)phenyl)imidazo[1,5-a]pyrazin-3-yl)pyrrolidin-1-yl)prop-2-en-1-one] | 10 to 100
12 | CC#CC(=O)N1CCCC[C@H]1c1nc(-c2ccc(Oc3cccc(OC)c3F)cc2)c2c(C(=O)OC)nccn12 [Example 67, methyl (S)-3-(1-(but-2-ynoyl)piperidin-2-yl)-1-(4-(2-fluoro-3-methoxyphenoxy)phenyl)imidazo[1,5-a]pyrazine-8-carboxylate] | 1000 to 10000
13 | CC#CC(=O)N1CC[C@@H](c2nc(-c3ccc(C(=O)Nc4cc(C(F)(F)F)ccn4)cc3)c3cnccn23)C1 [Example 211, (R)-4-(3-(1-(but-2-ynoyl)pyrrolidin-3-yl)imidazo[1,5-a]pyrazin-1-yl)-N-(4-(trifluoromethyl)pyridin-2-yl)benzamide] | 10 to 100
14 | CC#CC(=O)N1CCC[C@@H](c2nc(-c3ccc(C(=O)Nc4ccccn4)cc3)c3cnccn23)C1 [Example 167, (R)-4-(3-(1-(but-2-ynoyl)piperidin-3-yl)imidazo [1,5-a]pyrazin-1-yl)-N-(pyridin-2-yl)benzamide] | 1000 to 10000
15 | CC#CC(=O)N1CCC[C@H]1c1nc(-c2ccc(C(=O)Nc3cc(C(F)(F)F)ccn3)cc2F)c2c(CO)nccn12 [Example 208, (S)-4-(3-(1-(but-2-ynoyl)pyrrolidin-2-yl)-8-(hydroxymethyl)imidazo [1,5-a]pyrazin-1-yl)-3-fluoro-N-(4-(trifluoromethyl)pyridin-2-yl)benzamide] | 100 to 1000
16 | C=CC(=O)N1CCC[C@@H](c2nc(-c3ccc(C(=O)Nc4ccccn4)cc3)c3cncc(C)n23)C1 [Example 178, (R)-4-(3-(1-acryloylpiperidin-3-yl)-5-methylimidazo [1,5-a]pyrazin-1-yl)-N-(pyridin-2-yl)benzamide] | 100 to 1000
17 | C=CC(=O)N1CCCC[C@H]1c1nc(-c2ccc(C(=O)Nc3cc(C(F)(F)F)ccn3)cc2)c2c(C(F)(F)F)nccn12 [Example 201, (S)-4-(3-(1-acryloylpiperidin-2-yl)-8-(trifluoromethyl)imidazo[1,5-a]pyrazin-1-yl)-N-(4-(trifluoromethyl)pyridin-2-yl)benzamide] | 1000 to 10000
18 | CC#CC(=O)N1CCC[C@H]1c1nc(-c2ccc(C(=O)Nc3ccccn3)cc2)c2c(CO)nccn12 [Example 207, (S)-4-(3-(1-(but-2-ynoyl)pyrrolidin-2-yl)-8-(hydroxymethyl)imidazo [1,5-a]pyrazin-1-yl)-N-(pyridin-2-yl)benzamide] | 100 to 1000
19 | C=CC(=O)N1CCC[C@H]1c1nc(-c2ccc(OCc3cccc(Cl)c3)cc2)c2cnccn12 [Example 141, (S)-1-(2-(1-(4-((3-chlorobenzyl)oxy)phenyl)imidazo[1,5-a]pyrazin-3-yl)pyrrolidin-1-yl)prop-2-en-1-one] | 10 to 100
20 | CC#CC(=O)N1CC[C@@H](c2nc(-c3ccc(C(=O)Nc4ccccn4)cc3)c3c(C)ncc(OCC)n23)C1 [Example 205, (R)-4-(3-(1-(but-2-ynoyl)pyrrolidin-3-yl)-5-ethoxy-8-methylimidazo[1,5-a]pyrazin-1-yl)-N-(pyridin-2-yl)benzamide] | 10 to 100
21 | CC#CC(=O)N1CCCC[C@H]1c1nc(-c2ccc(COc3ccc(F)c(F)c3)cc2)c2cnccn12 [Example 149, (S)-1-(2-(1-(4-((3,4-difluorophenoxy)methyl)phenyl)imidazo[1,5-a]pyrazin-3-yl)piperidin-1-yl)but-2-yn-1-one] | 1000 to 10000
22 | C=CC(=O)N1CCC[C@H]1c1nc(-c2ccc(Oc3ccccc3OC)cc2)c2cnccn12 [Example 23, (S)-1-(2-(1-(4-(2-methoxyphenoxy)phenyl)imidazo[1,5-a]pyrazin-3-yl)pyrrolidin-1-yl)prop-2-en-1-one] | 10 to 100
23 | CC#CN1CCC[C@H]1c1nc(-c2ccc(C(=O)Nc3cc(C(F)(F)F)ccn3)cc2)c2c(CO)nccn12 [Example 210, (S)-4-(8-(hydroxymethyl)-3-(1-(prop-1-yn-1-yl)pyrrolidin-2-yl)imidazo [1,5-a]pyrazin-1-yl)-N-(4-(trifluoromethyl)pyridin-2-yl)benzamide] | 100 to 1000
